Laboratory results taken from publication PMC6628920 (Chemico-biological interactions, 2018).
Values belong to the molecule of their own block, whether it stands above or below them.

Tests used:
MRP1 = MRP1 (Homo sapiens, UniProt P33527); format: in vitro ADME
MRP4 = target: T1, MRP4 (Homo sapiens, UniProt O15439); format: in vitro ADME
T1 sequence (O15439 1-1325): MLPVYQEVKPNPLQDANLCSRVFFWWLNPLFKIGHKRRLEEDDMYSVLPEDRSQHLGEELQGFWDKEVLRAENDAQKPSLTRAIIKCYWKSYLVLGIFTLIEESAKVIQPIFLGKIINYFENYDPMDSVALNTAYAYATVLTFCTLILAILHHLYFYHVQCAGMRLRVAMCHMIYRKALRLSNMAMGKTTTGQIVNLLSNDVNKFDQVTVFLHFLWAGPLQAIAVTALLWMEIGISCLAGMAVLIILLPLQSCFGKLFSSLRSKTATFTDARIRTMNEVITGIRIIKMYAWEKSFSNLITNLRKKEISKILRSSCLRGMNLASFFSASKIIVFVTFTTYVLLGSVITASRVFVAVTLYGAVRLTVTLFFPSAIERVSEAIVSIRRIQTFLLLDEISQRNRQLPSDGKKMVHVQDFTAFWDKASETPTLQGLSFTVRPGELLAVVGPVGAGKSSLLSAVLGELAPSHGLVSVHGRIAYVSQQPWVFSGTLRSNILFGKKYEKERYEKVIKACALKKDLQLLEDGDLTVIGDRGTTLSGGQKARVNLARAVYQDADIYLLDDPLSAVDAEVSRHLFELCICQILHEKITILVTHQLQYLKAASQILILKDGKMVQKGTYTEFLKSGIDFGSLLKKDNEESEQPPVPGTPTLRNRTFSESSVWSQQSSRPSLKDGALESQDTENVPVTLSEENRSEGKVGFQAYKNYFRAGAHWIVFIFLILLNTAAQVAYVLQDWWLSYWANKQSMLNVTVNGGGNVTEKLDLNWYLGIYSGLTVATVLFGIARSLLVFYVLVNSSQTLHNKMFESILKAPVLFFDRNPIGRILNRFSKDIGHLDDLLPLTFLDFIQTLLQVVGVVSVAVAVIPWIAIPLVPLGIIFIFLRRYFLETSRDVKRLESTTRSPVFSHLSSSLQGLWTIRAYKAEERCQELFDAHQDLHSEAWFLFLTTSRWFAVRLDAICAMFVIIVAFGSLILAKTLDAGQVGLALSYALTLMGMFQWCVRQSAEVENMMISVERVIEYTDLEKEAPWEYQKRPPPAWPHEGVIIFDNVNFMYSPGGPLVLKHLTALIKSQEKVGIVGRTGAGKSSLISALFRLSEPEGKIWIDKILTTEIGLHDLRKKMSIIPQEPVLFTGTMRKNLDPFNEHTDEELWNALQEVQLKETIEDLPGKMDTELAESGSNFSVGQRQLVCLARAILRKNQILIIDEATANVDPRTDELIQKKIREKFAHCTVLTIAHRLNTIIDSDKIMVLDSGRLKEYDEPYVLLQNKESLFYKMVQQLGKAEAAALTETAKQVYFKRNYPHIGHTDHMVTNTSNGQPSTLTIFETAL

HeLa1A1 cell lysate [1] = target: T2, HeLa1A1 cell lysate (Homo sapiens, UniProt P22309); experiment: Chemical inhibition of cycloicaritin-3-O-glucuronidation by HeLa1A1 cell lysate; format: biochemical; details: cycloicaritin 8 μM
T2 sequence (P22309 26-533): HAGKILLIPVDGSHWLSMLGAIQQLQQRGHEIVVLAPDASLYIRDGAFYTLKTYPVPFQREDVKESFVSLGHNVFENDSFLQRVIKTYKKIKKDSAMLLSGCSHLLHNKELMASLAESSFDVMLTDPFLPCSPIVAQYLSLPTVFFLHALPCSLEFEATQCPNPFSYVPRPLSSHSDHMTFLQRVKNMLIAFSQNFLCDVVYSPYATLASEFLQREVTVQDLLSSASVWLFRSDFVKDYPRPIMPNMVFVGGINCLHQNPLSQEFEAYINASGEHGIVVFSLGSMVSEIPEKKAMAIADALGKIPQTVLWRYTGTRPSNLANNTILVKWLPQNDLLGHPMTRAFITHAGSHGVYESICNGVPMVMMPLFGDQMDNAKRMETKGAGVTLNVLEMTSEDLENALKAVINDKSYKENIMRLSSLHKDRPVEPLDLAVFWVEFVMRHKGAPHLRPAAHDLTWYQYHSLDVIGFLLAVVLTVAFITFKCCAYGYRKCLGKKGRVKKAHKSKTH

recombinant UGT1A1 [2] = target: T3, recombinant UGT1A1 (Homo sapiens, UniProt P22309); experiment: Chemical inhibition of cycloicaritin-3-O-glucuronidation by recombinant UGT1A1; format: biochemical; details: cycloicaritin 8 μM
T3 sequence (P22309 26-533): T2 sequence (P22309 26-533)

MRPs = experiment: Effects of MRPs inhibitors on excretion of CICT-3-G in HeLa1A1 cells; format: cell-based, human; details: inhibitor 0.05 and 0.2 μM, cycloicaritin 8 μM
recombinant UGT1A1 [3] = target: T3, recombinant UGT1A1; experiment: Kinetics of cycloicaritin-3-O-glucuronidation by recombinant UGT1A1; format: in vitro ADME; details: Hill equation
[4] = Metabolite formation from cycloicaritin by wild-type HeLa cell lysate; format: in vitro ADME, human; details: cycloicaritin 8 μM, 2 h
HeLa1A1 cell lysate [5] = target: T2, HeLa1A1 cell lysate; experiment: Kinetics of cycloicaritin-3-O-glucuronidation by HeLa1A1 cell lysate; format: in vitro ADME; details: Hill equation
[6] = cited from earlier work
[7] = cited from earlier work; remark: listed apart in the source

Chain of MRP1 (P33527 whole entry): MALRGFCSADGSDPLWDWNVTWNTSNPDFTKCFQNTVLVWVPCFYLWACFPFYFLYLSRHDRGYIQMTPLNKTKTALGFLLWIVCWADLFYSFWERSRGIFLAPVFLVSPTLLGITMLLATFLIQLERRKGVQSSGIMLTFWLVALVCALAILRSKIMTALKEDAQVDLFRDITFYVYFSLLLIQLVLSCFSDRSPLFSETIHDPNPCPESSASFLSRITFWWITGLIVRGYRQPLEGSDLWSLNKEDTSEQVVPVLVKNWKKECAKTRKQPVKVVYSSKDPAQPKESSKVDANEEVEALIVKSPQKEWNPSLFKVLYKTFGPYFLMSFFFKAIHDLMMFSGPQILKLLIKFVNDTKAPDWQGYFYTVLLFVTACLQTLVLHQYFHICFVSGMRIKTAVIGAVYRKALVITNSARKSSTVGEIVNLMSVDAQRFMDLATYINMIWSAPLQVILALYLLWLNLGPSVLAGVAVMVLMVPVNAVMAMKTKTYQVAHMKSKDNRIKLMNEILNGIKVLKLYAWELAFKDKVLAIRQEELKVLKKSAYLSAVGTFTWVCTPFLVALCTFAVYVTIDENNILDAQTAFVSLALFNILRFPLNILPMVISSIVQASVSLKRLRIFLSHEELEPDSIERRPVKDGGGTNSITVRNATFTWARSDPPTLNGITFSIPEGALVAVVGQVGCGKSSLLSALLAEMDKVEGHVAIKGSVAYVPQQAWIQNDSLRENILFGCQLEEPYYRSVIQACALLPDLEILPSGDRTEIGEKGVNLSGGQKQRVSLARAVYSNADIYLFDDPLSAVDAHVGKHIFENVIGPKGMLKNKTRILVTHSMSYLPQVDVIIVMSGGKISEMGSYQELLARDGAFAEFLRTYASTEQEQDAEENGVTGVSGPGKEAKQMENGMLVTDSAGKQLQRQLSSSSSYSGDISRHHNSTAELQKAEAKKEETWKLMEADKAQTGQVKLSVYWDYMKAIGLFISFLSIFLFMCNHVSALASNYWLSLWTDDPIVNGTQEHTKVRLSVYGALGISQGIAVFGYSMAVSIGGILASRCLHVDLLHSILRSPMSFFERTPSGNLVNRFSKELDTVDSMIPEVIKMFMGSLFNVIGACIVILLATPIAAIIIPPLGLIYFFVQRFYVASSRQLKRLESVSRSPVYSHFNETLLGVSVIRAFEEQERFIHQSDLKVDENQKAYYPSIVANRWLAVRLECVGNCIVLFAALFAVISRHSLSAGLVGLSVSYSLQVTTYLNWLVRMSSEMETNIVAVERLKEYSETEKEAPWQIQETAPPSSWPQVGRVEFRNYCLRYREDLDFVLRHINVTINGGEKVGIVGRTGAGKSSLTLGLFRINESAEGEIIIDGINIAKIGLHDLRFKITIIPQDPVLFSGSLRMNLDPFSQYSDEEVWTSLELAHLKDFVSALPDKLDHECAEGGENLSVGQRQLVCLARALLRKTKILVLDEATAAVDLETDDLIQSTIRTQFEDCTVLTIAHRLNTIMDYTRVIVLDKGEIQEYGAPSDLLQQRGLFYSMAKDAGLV

- decrease of the efflux clearance of CICT-3-G (MRP1): 52.0%
- decrease in the efflux clearance of CICT-3-G (MRP4): 28.7%
SMILES: COc1ccc(-c2oc3c4c(cc(O)c3c(=O)c2O[C@@H]2O[C@H](C(=O)O)[C@@H](O)[C@H](O)[C@H]2O)OC(C)(C)CC4)cc1 [CICT-3-G, cycloicaritin-3-O-glucuronide]

SMILES: COc1ccc2c3c([nH]c2c1)[C@H](CC(C)C)N1C(=O)[C@H](CCC(=O)OC(C)(C)C)NC(=O)[C@@H]1C3 [Ko143]
- remaining cycloicaritin-3-O-glucuronidation activity, % of the control values (HeLa1A1 cell lysate [1]; inhibitor 20 μM): 8.8%
- remaining cycloicaritin-3-O-glucuronidation activity, % of the control values (recombinant UGT1A1 [2]; inhibitor 20 μM): 12.5%

- effect on cycloicaritin-3-O-glucuronidation activity (HeLa1A1 cell lysate [1]; inhibitor 0.05 and 0.2 μM): did not alter
- effect on cycloicaritin-3-O-glucuronidation activity (recombinant UGT1A1 [2]; inhibitor 0.05 and 0.2 μM): did not alter
SMILES: CCCCC/C=C\C\C=C/C=C/C=C/[C@@H](SC[C@H](NC(=O)CC[C@H](N)C(=O)O)C(=O)NCC(=O)O)[C@@H](O)CCCC(=O)O [LTC4, leukotriene C4]
- effect on CLapp value of CICT-3-G (MRPs): no significant changes
- effect on fmet value of CICT-3-G (MRPs): no significant changes
- effect on the intracellular level of CICT-3-G (MRPs): did not alter
- effect on the rate of efflux excretion of CICT-3-G (MRPs): did not alter

SMILES: COc1ccc(-c2oc3c4c(cc(O)c3c(=O)c2O)OC(C)(C)CC4)cc1 [cycloicaritin, Cycloicaritin]
- CLmax of cycloicaritin-3-O-glucuronidation (recombinant UGT1A1 [3]): 190 µL/min/mg
- S50 of cycloicaritin-3-O-glucuronidation (recombinant UGT1A1 [3]): 1.43 µM
- n (Hill coefficient) of cycloicaritin-3-O-glucuronidation (recombinant UGT1A1 [3]): 1.67 µM
- Vmax of cycloicaritin-3-O-glucuronidation (recombinant UGT1A1 [3]; cycloicaritin 0.1-10 μM): 0.54 nmol/min/mg
- metabolites detected after incubation with cell lysate [4]: no metabolites were detected
- CLmax of cycloicaritin-3-O-glucuronidation (HeLa1A1 cell lysate [5]): 17 µL/min/mg
- S50 of cycloicaritin-3-O-glucuronidation (HeLa1A1 cell lysate [5]): 1.19 µM
- n (Hill coefficient) of cycloicaritin-3-O-glucuronidation (HeLa1A1 cell lysate [5]): 1.71 µM
- Vmax of cycloicaritin-3-O-glucuronidation (HeLa1A1 cell lysate [5]; cycloicaritin 0.1-10 μM): 0.04 nmol/min/mg

SMILES: COc1ccc(-c2oc3c(CC=C(C)C)c(O)cc(O)c3c(=O)c2O)cc1 [icaritin]
- CLint of glucuronidation in human liver [6]: > 350 µL/min/mg
- CLint of glucuronidation in human intestine [7]: > 180 µL/min/mg

SMILES: COc1ccc(-c2oc3c(CCC(C)(C)O)c(O)cc(O)c3c(=O)c2O)cc1 [wushanicaritin]
- CLint of glucuronidation in human liver [6]: > 350 µL/min/mg
- CLint of glucuronidation in human intestine [7]: > 180 µL/min/mg
